How the values were obtained:
OVCAR-8 = experiment: in vitro ovarian cancer cell growth inhibition (NCI screen)
SF-268 = experiment: in vitro CNS cancer cell growth inhibition (NCI screen)
human tumor cell lines = assay type: cell-based; settings: Homo sapiens; non-small cell lung, CNS, melanoma, colon, leukemia, small cell lung, and renal cancer cell lines; read-out: logGI50 values (range over cell lines) (converted)
CCRF-CEM = experiment: in vitro leukemia cell growth inhibition (NCI screen)
UACC-62 = experiment: in vitro melanoma cell growth inhibition (NCI screen)
NCI-H460 = experiment: in vitro non-small cell lung cancer cell growth inhibition (NCI screen)
LOX1MVI = experiment: in vitro melanoma cell growth inhibition (NCI screen)
HCT-15 = experiment: in vitro colon cancer cell growth inhibition (NCI screen)
U 251 = experiment: in vitro CNS cancer cell growth inhibition (NCI screen)
K-562 = experiment: in vitro leukemia cell growth inhibition (NCI screen)
KM 20L2 = experiment: in vitro colon cancer cell growth inhibition (NCI screen)
DLD-1 = experiment: as above
HL-60(TB) = experiment: in vitro leukemia cell growth inhibition (NCI screen)
NCI-H522 = experiment: in vitro non-small cell lung cancer cell growth inhibition (NCI screen)
HT 29 = experiment: in vitro colon cancer cell growth inhibition (NCI screen)
LXFL 529 = experiment: in vitro non-small cell lung cancer cell growth inhibition (NCI screen)
HCT-116 = experiment: in vitro colon cancer cell growth inhibition (NCI screen)
MOLT-4 = experiment: in vitro leukemia cell growth inhibition (NCI screen)
M19-MEL = experiment: in vitro melanoma cell growth inhibition (NCI screen)
SNB-78 = experiment: in vitro CNS cancer cell growth inhibition (NCI screen)
SF-539 = experiment: as above
786-0 = experiment: in vitro renal cancer cell growth inhibition (NCI screen)
SR = experiment: in vitro leukemia cell growth inhibition (NCI screen)
OVCAR-3 = experiment: in vitro ovarian cancer cell growth inhibition (NCI screen)
TK-10 = experiment: in vitro renal cancer cell growth inhibition (NCI screen)
SK-MEL-28 = experiment: in vitro melanoma cell growth inhibition (NCI screen)
KM 12 = experiment: in vitro colon cancer cell growth inhibition (NCI screen)
OVCAR-4 = experiment: in vitro ovarian cancer cell growth inhibition (NCI screen); settings: OVACR-4
MDA-N = experiment: in vitro breast cancer cell growth inhibition (NCI screen)
SK-MEL-5 = experiment: in vitro melanoma cell growth inhibition (NCI screen)
SN12C = experiment: in vitro renal cancer cell growth inhibition (NCI screen)
HOP-62 = experiment: in vitro non-small cell lung cancer cell growth inhibition (NCI screen)
EKVX = experiment: as above
PC-3 = experiment: in vitro prostate cancer cell growth inhibition (NCI screen)
RXF-393 = experiment: in vitro renal cancer cell growth inhibition (NCI screen)
NCI-H266 = experiment: in vitro non-small cell lung cancer cell growth inhibition (NCI screen)
UO-31 = experiment: in vitro renal cancer cell growth inhibition (NCI screen)
MALME-3M = experiment: in vitro melanoma cell growth inhibition (NCI screen)
HOP-92 = experiment: in vitro non-small cell lung cancer cell growth inhibition (NCI screen)
SNB-75 = experiment: in vitro CNS cancer cell growth inhibition (NCI screen)
UACC-257 = experiment: in vitro melanoma cell growth inhibition (NCI screen)
SW 620 = experiment: in vitro colon cancer cell growth inhibition (NCI screen)
NCI-H23 = experiment: in vitro non-small cell lung cancer cell growth inhibition (NCI screen)
XF-498 = experiment: in vitro CNS cancer cell growth inhibition (NCI screen)
HOP-18 = experiment: in vitro non-small cell lung cancer cell growth inhibition (NCI screen)
CAKI-1 = experiment: in vitro renal cancer cell growth inhibition (NCI screen)
M14 = experiment: in vitro melanoma cell growth inhibition (NCI screen)
MCF-7 = experiment: in vitro breast cancer cell growth inhibition (NCI screen)
SK-MEL-2 = experiment: in vitro melanoma cell growth inhibition (NCI screen)
RPMI-8226 = experiment: in vitro leukemia cell growth inhibition (NCI screen)
SF-295 = experiment: in vitro CNS cancer cell growth inhibition (NCI screen)

Structure (SMILES): Cc1nc2c(n1Cc1ccc(Cl)cc1)C(=O)c1ccccc1C2=O [Compound 20]
- cytotoxicity log GI50 (OVCAR-8): -5.05 M
- cytotoxicity log GI50 (SF-268): -5.29 M
- GI50 (human tumor cell lines): 1 to 10 µM
- cytotoxicity log GI50 (CCRF-CEM): -5.33 M
- cytotoxicity log GI50 (UACC-62): -5.47 M
- cytotoxicity log GI50 (NCI-H460): -5.76 M
- cytotoxicity log GI50 (LOX1MVI): -5.69 M
- cytotoxicity log GI50 (HCT-15): -5.97 M
- cytotoxicity log GI50 (U 251): -5.46 M
- cytotoxicity log GI50 (K-562): -5.69 M
- cytotoxicity log GI50 (KM 20L2): -5.09 M
- cytotoxicity log GI50 (DLD-1): -5.38 M
- cytotoxicity log GI50 (HL-60(TB)): -5.36 M
- cytotoxicity log GI50 (NCI-H522): -5.26 M
- cytotoxicity log GI50 (HT 29): -5.39 M
- cytotoxicity log GI50 (LXFL 529): -5.26 M
- cytotoxicity log GI50 (HCT-116): -5.59 M
- cytotoxicity log GI50 (MOLT-4): -5.50 M
- cytotoxicity log GI50 (M19-MEL): -4.93 M
- cytotoxicity log GI50 (SNB-78): -5.03 M
- cytotoxicity log GI50 (SF-539): -5.60 M
- cytotoxicity log GI50 (786-0): -5.25 M
- cytotoxicity log GI50 (SR): -5.88 M

Structure (SMILES): CCNC1=C(NC(=O)CCl)C(=O)c2ccccc2C1=O [Compound 44]
- cytotoxicity log GI50 (OVCAR-3): -4.75 M
- cytotoxicity log GI50 (TK-10): -4.75 M
- cytotoxicity log GI50 (SK-MEL-28): -4.75 M
- cytotoxicity log GI50 (KM 12): -4.77 M
- cytotoxicity log GI50 (OVCAR-4): -4.77 M
- cytotoxicity log GI50 (MDA-N): -4.81 M
- cytotoxicity log GI50 (SK-MEL-5): -4.78 M
- cytotoxicity log GI50 (SN12C): -4.75 M
- cytotoxicity log GI50 (HOP-62): -4.78 M
- cytotoxicity log GI50 (EKVX): -4.80 M
- cytotoxicity log GI50 (NCI-H522): -4.82 M
- cytotoxicity log GI50 (HCT-116): -4.74 M
- cytotoxicity log GI50 (PC-3): -4.80 M
- cytotoxicity log GI50 (RXF-393): -4.78 M

Structure (SMILES): CC(=O)NC1=C(NCC(C)C)C(=O)c2ccccc2C1=O [Compound 31]
- cytotoxicity log GI50 (OVCAR-3): -4.78 M
- cytotoxicity log GI50 (SF-268): -4.69 M
- cytotoxicity log GI50 (TK-10): -4.68 M
- cytotoxicity log GI50 (SK-MEL-28): -4.77 M
- cytotoxicity log GI50 (NCI-H266): -4.80 M
- cytotoxicity log GI50 (CCRF-CEM): -5.14 M
- cytotoxicity log GI50 (UACC-62): -4.74 M
- cytotoxicity log GI50 (SK-MEL-5): -4.70 M
- cytotoxicity log GI50 (UO-31): -4.74 M
- cytotoxicity log GI50 (LOX1MVI): -4.81 M
- cytotoxicity log GI50 (HCT-15): -4.75 M
- cytotoxicity log GI50 (MALME-3M): -4.72 M
- cytotoxicity log GI50 (HOP-92): -4.85 M
- cytotoxicity log GI50 (K-562): -4.81 M
- cytotoxicity log GI50 (SN12C): -4.77 M
- cytotoxicity log GI50 (KM 20L2): -4.67 M
- cytotoxicity log GI50 (SNB-75): -4.77 M
- cytotoxicity log GI50 (UACC-257): -4.73 M
- cytotoxicity log GI50 (DLD-1): -4.72 M
- cytotoxicity log GI50 (HL-60(TB)): -5.56 M
- cytotoxicity log GI50 (LXFL 529): -4.79 M
- cytotoxicity log GI50 (HCT-116): -4.69 M
- cytotoxicity log GI50 (SW 620): -4.68 M
- cytotoxicity log GI50 (NCI-H23): -4.70 M
- cytotoxicity log GI50 (M19-MEL): -4.73 M
- cytotoxicity log GI50 (XF-498): -4.85 M
- cytotoxicity log GI50 (HOP-18): -4.89 M
- cytotoxicity log GI50 (SF-539): -4.76 M
- cytotoxicity log GI50 (786-0): -4.84 M
- cytotoxicity log GI50 (CAKI-1): -4.78 M
- cytotoxicity log GI50 (RXF-393): -4.90 M
- cytotoxicity log GI50 (M14): -4.74 M

Structure (SMILES): O=C(O)CCCc1nc2c(n1Cc1ccccc1)C(=O)c1ccccc1C2=O [Compound 57]
- cytotoxicity log GI50 (OVCAR-3): -4.67 M
- cytotoxicity log GI50 (MCF-7): -4.53 M
- cytotoxicity log GI50 (SF-268): -4.58 M
- cytotoxicity log GI50 (CCRF-CEM): -5.28 M
- cytotoxicity log GI50 (UACC-62): -4.76 M
- cytotoxicity log GI50 (OVCAR-4): -4.69 M
- cytotoxicity log GI50 (MDA-N): -4.65 M
- cytotoxicity log GI50 (SK-MEL-2): -4.83 M
- cytotoxicity log GI50 (MALME-3M): -4.80 M
- cytotoxicity log GI50 (UACC-257): -4.60 M
- cytotoxicity log GI50 (RPMI-8226): -4.73 M
- cytotoxicity log GI50 (HL-60(TB)): -4.54 M
- cytotoxicity log GI50 (EKVX): -4.50 M
- cytotoxicity log GI50 (NCI-H522): -4.53 M
- cytotoxicity log GI50 (HCT-116): -4.54 M
- cytotoxicity log GI50 (NCI-H23): -4.50 M
- cytotoxicity log GI50 (SF-295): -4.59 M
- cytotoxicity log GI50 (M14): -5.43 M

Structure (SMILES): CC(=O)NC1=C(NC(C)(C)C)C(=O)c2ccccc2C1=O [Compound 32]
- cytotoxicity log GI50 (OVCAR-3): -4.81 M
- cytotoxicity log GI50 (NCI-H266): -4.84 M
- cytotoxicity log GI50 (CCRF-CEM): -5.63 M
- cytotoxicity log GI50 (UACC-62): -4.86 M
- cytotoxicity log GI50 (LOX1MVI): -4.78 M
- cytotoxicity log GI50 (HCT-15): -4.76 M
- cytotoxicity log GI50 (K-562): -5.14 M
- cytotoxicity log GI50 (SNB-75): -4.86 M
- cytotoxicity log GI50 (UACC-257): -4.80 M
- cytotoxicity log GI50 (DLD-1): -4.80 M
- cytotoxicity log GI50 (RPMI-8226): -4.93 M
- cytotoxicity log GI50 (HL-60(TB)): -5.65 M
- cytotoxicity log GI50 (LXFL 529): -4.82 M
- cytotoxicity log GI50 (SW 620): -4.85 M
- cytotoxicity log GI50 (MOLT-4): -5.19 M
- cytotoxicity log GI50 (M19-MEL): -4.81 M
- cytotoxicity log GI50 (XF-498): -4.95 M
- cytotoxicity log GI50 (HOP-18): -4.83 M
- cytotoxicity log GI50 (SF-539): -4.80 M
- cytotoxicity log GI50 (786-0): -5.47 M
- cytotoxicity log GI50 (CAKI-1): -4.79 M
- cytotoxicity log GI50 (M14): -4.77 M
